# Laboratory results taken from ChEMBL document CHEMBL1201862, “PubChem BioAssay data set” (2004).
#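 1) Cells in 96-well plates. 2) Compound, 48 h, 5 concentrations. 3) Linear interpolation between surrounding doses. 4) Unreached endpoint = highest concentration. At the GI50, growth is halved.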 Active and inactive are the calls of the source. No stated cut-off is given here; in the data, active = GI50 up to about 1.1 µM and inactive = higher.
# How the values were obtained:
# Assay in all cases: NCI tumour cell line growth inhibition, 48 h
# [1] = tested on: A549
# [2] = tested on: CCRF-CEM
# [3] = tested on: COLO 205
# [4] = tested on: EKVX
# [5] = tested on: HCT-15
# [6] = tested on: IGROV-1
# [7] = tested on: KM12
# [8] = tested on: LOX IMVI
# [9] = tested on: M14
# [10] = tested on: Malme-3M
# [11] = tested on: NCI-H23
# [12] = tested on: OVCAR-3
# [13] = tested on: OVCAR-5
# [14] = tested on: OVCAR-8
# [15] = tested on: SK-OV-3
# [16] = tested on: SNB-19
# [17] = tested on: SW-620
# [18] = tested on: TK-10
# [19] = tested on: U-251
# [20] = tested on: UACC-62
SMILES,GI50 [1],GI50 [2],GI50 [3],GI50 [4],GI50 [5],GI50 [6],GI50 [7],GI50 [8],GI50 [9],GI50 [10],GI50 [11],GI50 [12],GI50 [13],GI50 [14],GI50 [15],GI50 [16],GI50 [17],GI50 [18],GI50 [19],GI50 [20]
COc1ccc(C(=O)C(C(=O)C(=O)NC2C3CC4CC(C3)CC2C4)c2ccc(OC)cc2)cc1 (stereo not drawn),> 100 µM (inactive),> 100 µM (inactive),> 100 µM (inactive),> 100 µM (inactive),> 100 µM,> 100 µM (inactive),> 100 µM (inactive),> 100 µM (inactive),> 100 µM (inactive),> 100 µM (inactive),> 100 µM (inactive),> 100 µM (inactive),> 100 µM (inactive),> 100 µM (inactive),> 100 µM (inactive),> 100 µM (inactive),> 100 µM (inactive),> 100 µM (inactive),> 100 µM (inactive),> 100 µM (inactive)
N#Cc1nnn(-c2ccc(Br)cc2)c1O,> 100 µM (inactive),> 100 µM (inactive),> 100 µM (inactive),> 100 µM (inactive),> 100 µM,> 100 µM (inactive),> 100 µM (inactive),> 100 µM (inactive),> 100 µM (inactive),> 100 µM (inactive),> 100 µM (inactive),> 100 µM (inactive),> 100 µM (inactive),> 100 µM (inactive),> 100 µM (inactive),> 100 µM (inactive),> 100 µM (inactive),> 100 µM (inactive),> 100 µM (inactive),> 100 µM (inactive)
CC(=O)[C@H]1CC[C@@H]2[C@]1(C)CC=C1[C@]23C=C[C@]2(C[C@@H](O)CC[C@]12C)C(C(=O)O)C3C(=O)O (stereo partly drawn),> 100 µM (inactive),> 100 µM (inactive),> 100 µM (inactive),> 100 µM (inactive),> 100 µM,> 100 µM (inactive),> 100 µM (inactive),> 100 µM (inactive),> 100 µM (inactive),> 100 µM (inactive),> 100 µM (inactive),> 100 µM (inactive),> 100 µM (inactive),> 100 µM (inactive),> 100 µM (inactive),> 100 µM (inactive),> 100 µM (inactive),> 100 µM (inactive),> 100 µM (inactive),> 100 µM (inactive)
Cn1c(=O)c2nc3c(=O)n(C)c(=O)n(CC(N)=O)c3nc2n(C)c1=O,,> 100 µM (inactive),> 100 µM (inactive),> 100 µM (inactive),> 100 µM,> 100 µM (inactive),> 100 µM (inactive),> 100 µM (inactive),> 100 µM (inactive),> 100 µM (inactive),> 100 µM (inactive),> 100 µM (inactive),> 100 µM (inactive),> 100 µM (inactive),> 100 µM (inactive),> 100 µM (inactive),> 100 µM (inactive),> 100 µM (inactive),> 100 µM (inactive),> 100 µM (inactive)
C=CC1(C)CCC2=C(CCC3C(C)(C(=O)OC)CCCC23C)C1=O (stereo not drawn),,21.4 µM (inactive),19.1 µM (inactive),18.7 µM (inactive),20.6 µM,18.9 µM (inactive),17.4 µM (inactive),18.5 µM (inactive),20.8 µM (inactive),17.9 µM (inactive),19.5 µM (inactive),19.7 µM (inactive),16 µM (inactive),29.8 µM (inactive),18.9 µM (inactive),38.4 µM (inactive),17.6 µM (inactive),19.9 µM (inactive),15.6 µM (inactive),18.3 µM (inactive)
Cc1ccc2c(O)cc(-c3sccc3C)nc2n1,0.612 µM (active),0.635 µM (active),0.37 µM (active),4.43 µM (inactive),0.406 µM,0.625 µM (active),0.719 µM (active),0.723 µM (active),0.438 µM (active),0.463 µM (active),0.337 µM (active),0.653 µM (active),1.67 µM (inactive),1.99 µM (inactive),1.45 µM (inactive),0.78 µM (active),0.264 µM (active),> 24.2 µM (inactive),0.832 µM (active),0.9 µM (active)
COc1ccc(N(CC(=O)O)S(=O)(=O)c2ccccc2)cc1,> 100 µM (inactive),> 100 µM (inactive),> 100 µM (inactive),> 100 µM (inactive),> 100 µM,> 100 µM (inactive),> 100 µM (inactive),> 100 µM (inactive),> 100 µM (inactive),> 100 µM (inactive),> 100 µM (inactive),> 100 µM (inactive),> 100 µM (inactive),> 100 µM (inactive),> 100 µM (inactive),> 100 µM (inactive),> 100 µM (inactive),> 100 µM (inactive),> 100 µM (inactive),> 100 µM (inactive)
